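Method: 48-hour compound exposure of cells in 96-well plates, five concentrations, linear interpolation of endpoints. Definition used: TGI = concentration required for complete inhibition of growth.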
Assays:
Assay in all cases: NCI tumour cell line growth inhibition, 48 h
HOP-18 NSCLC = test system: HOP-18 NSCLC
LOX IMVI melanoma = test system: LOX IMVI melanoma
SW-620 colon = test system: SW-620 colon
KM12 colon = test system: KM12 colon
UACC-257 melanoma = test system: UACC-257 melanoma
SN12C renal = test system: SN12C renal
SK-MEL-5 melanoma = test system: SK-MEL-5 melanoma
M14 melanoma = test system: M14 melanoma
OVCAR-3 ovarian = test system: OVCAR-3 ovarian
SNB-78 CNS = test system: SNB-78 CNS
NCI-H226 lung = test system: NCI-H226 lung
HOP-92 NSCLC = test system: HOP-92 NSCLC
KM20L2 colon = test system: KM20L2 colon
SF-268 CNS = test system: SF-268 CNS
LXFL 529 NSCLC = test system: LXFL 529 NSCLC
IGROV1 ovarian = test system: IGROV1 ovarian
SK-MEL-28 melanoma = test system: SK-MEL-28 melanoma
MALME-3M melanoma = test system: MALME-3M melanoma
NCI-H522 lung = test system: NCI-H522 lung
U251 CNS = test system: U251 CNS
CAKI-1 renal = test system: CAKI-1 renal
HCT-15 colon = test system: HCT-15 colon
HCT-116 colon = test system: HCT-116 colon
ACHN renal = test system: ACHN renal
SNB-75 CNS = test system: SNB-75 CNS
A498 renal = test system: A498 renal
OVCAR-5 ovarian = test system: OVCAR-5 ovarian
MOLT-4 leukemia = test system: MOLT-4 leukemia
K-562 leukemia = test system: K-562 leukemia
DMS 114 small cell lung = test system: DMS 114 small cell lung
DMS 273 small cell lung = test system: DMS 273 small cell lung
EKVX NSCLC = test system: EKVX NSCLC
OVCAR-8 ovarian = test system: OVCAR-8 ovarian
HL-60(TB) leukemia = test system: HL-60(TB) leukemia
786-0 renal = test system: 786-0 renal
TK-10 renal = test system: TK-10 renal
HOP-62 NSCLC = test system: HOP-62 NSCLC
A549 NSCLC = test system: A549 NSCLC
HT29 colon = test system: HT29 colon
COLO 205 colon = test system: COLO 205 colon
CCRF-CEM leukemia = test system: CCRF-CEM leukemia
SNB-19 CNS = test system: SNB-19 CNS
UACC-62 melanoma = test system: UACC-62 melanoma
XF 498 CNS = test system: XF 498 CNS
OVCAR-4 ovarian = test system: OVCAR-4 ovarian
UO-31 renal = test system: UO-31 renal
SR leukemia = test system: SR leukemia
RXF-631 renal = test system: RXF-631 renal
SF-295 CNS = test system: SF-295 CNS
RXF 393 renal = test system: RXF 393 renal
M19-MEL melanoma = test system: M19-MEL melanoma
NCI-H460 lung = test system: NCI-H460 lung
SF-539 CNS = test system: SF-539 CNS
DLD-1 colon = test system: DLD-1 colon
RPMI-8226 leukemia = test system: RPMI-8226 leukemia
SK-MEL-2 melanoma = test system: SK-MEL-2 melanoma
HCC-2998 colon = test system: HCC-2998 colon
NCI-H23 lung = test system: NCI-H23 lung

COc1cc(CCc2ccc(OCCN(C)C)cc2)cc(OC)c1OC
TGI (HOP-18 NSCLC): > 100 µM | TGI (LOX IMVI melanoma): > 100 µM | TGI (SW-620 colon): > 100 µM | TGI (KM12 colon): > 100 µM | TGI (UACC-257 melanoma): > 100 µM | TGI (SN12C renal): > 100 µM | TGI (SK-MEL-5 melanoma): 64.6 µM | TGI (M14 melanoma): > 100 µM | TGI (OVCAR-3 ovarian): > 100 µM | TGI (SNB-78 CNS): > 100 µM | TGI (NCI-H226 lung): > 100 µM | TGI (HOP-92 NSCLC): > 100 µM | TGI (KM20L2 colon): > 100 µM | TGI (SF-268 CNS): > 100 µM | TGI (LXFL 529 NSCLC): > 100 µM | TGI (IGROV1 ovarian): > 100 µM | TGI (SK-MEL-28 melanoma): > 100 µM | TGI (MALME-3M melanoma): > 100 µM | TGI (NCI-H522 lung): > 100 µM | TGI (U251 CNS): > 100 µM | TGI (CAKI-1 renal): > 100 µM | TGI (HCT-15 colon): > 100 µM | TGI (HCT-116 colon): > 100 µM | TGI (ACHN renal): > 100 µM | TGI (SNB-75 CNS): > 100 µM | TGI (A498 renal): > 100 µM | TGI (OVCAR-5 ovarian): 88.4 µM | TGI (MOLT-4 leukemia): > 100 µM | TGI (K-562 leukemia): > 100 µM | TGI (DMS 114 small cell lung): > 100 µM | TGI (DMS 273 small cell lung): > 100 µM | TGI (EKVX NSCLC): > 100 µM | TGI (OVCAR-8 ovarian): > 100 µM | TGI (HL-60(TB) leukemia): > 100 µM | TGI (786-0 renal): > 100 µM | TGI (TK-10 renal): > 100 µM | TGI (HOP-62 NSCLC): > 100 µM | TGI (A549 NSCLC): > 100 µM | TGI (HT29 colon): > 100 µM | TGI (COLO 205 colon): 38.9 µM | TGI (CCRF-CEM leukemia): > 100 µM | TGI (SNB-19 CNS): > 100 µM | TGI (UACC-62 melanoma): > 100 µM | TGI (XF 498 CNS): 93.7 µM | TGI (OVCAR-4 ovarian): > 100 µM | TGI (UO-31 renal): > 100 µM | TGI (SR leukemia): > 100 µM | TGI (RXF-631 renal): > 100 µM | TGI (SF-295 CNS): > 100 µM | TGI (RXF 393 renal): > 100 µM | TGI (M19-MEL melanoma): > 100 µM | TGI (NCI-H460 lung): > 100 µM | TGI (SF-539 CNS): > 100 µM | TGI (DLD-1 colon): > 100 µM | TGI (RPMI-8226 leukemia): > 100 µM

CCOC(=O)C(=O)Nc1nc2c(s1)C(=O)c1ccccc1C2=O
TGI (SW-620 colon): 27.7 µM | TGI (KM12 colon): 30.6 µM | TGI (UACC-257 melanoma): 31.4 µM | TGI (SN12C renal): 30.1 µM | TGI (SK-MEL-5 melanoma): 33.7 µM | TGI (M14 melanoma): 32.7 µM | TGI (OVCAR-3 ovarian): 18.6 µM | TGI (SNB-78 CNS): 24.8 µM | TGI (NCI-H226 lung): 34.4 µM | TGI (HOP-92 NSCLC): 25.3 µM | TGI (KM20L2 colon): 40.7 µM | TGI (SF-268 CNS): 27.3 µM | TGI (LXFL 529 NSCLC): 26.2 µM | TGI (IGROV1 ovarian): 37.6 µM | TGI (SK-MEL-28 melanoma): 27.6 µM | TGI (MALME-3M melanoma): 25.8 µM | TGI (NCI-H522 lung): 29.3 µM | TGI (U251 CNS): 31 µM | TGI (CAKI-1 renal): 33.5 µM | TGI (HCT-15 colon): 29.6 µM | TGI (HCT-116 colon): 27.7 µM | TGI (ACHN renal): 28.1 µM | TGI (SNB-75 CNS): 30.2 µM | TGI (A498 renal): 33.2 µM | TGI (OVCAR-5 ovarian): 42.5 µM | TGI (MOLT-4 leukemia): 18.9 µM | TGI (K-562 leukemia): 33.3 µM | TGI (DMS 114 small cell lung): 17.6 µM | TGI (DMS 273 small cell lung): 40.6 µM | TGI (EKVX NSCLC): 29.6 µM | TGI (OVCAR-8 ovarian): 47.5 µM | TGI (SK-MEL-2 melanoma): 31.7 µM | TGI (786-0 renal): 31.2 µM | TGI (HCC-2998 colon): 31.6 µM | TGI (HOP-62 NSCLC): 33.5 µM | TGI (A549 NSCLC): 34.4 µM | TGI (HT29 colon): 27.4 µM | TGI (COLO 205 colon): 56.4 µM | TGI (CCRF-CEM leukemia): 69.8 µM | TGI (SNB-19 CNS): 31.9 µM | TGI (UACC-62 melanoma): 34.4 µM | TGI (XF 498 CNS): 26.9 µM | TGI (OVCAR-4 ovarian): 31.5 µM | TGI (UO-31 renal): 28 µM | TGI (SR leukemia): 23.4 µM | TGI (RXF-631 renal): 27.8 µM | TGI (NCI-H23 lung): 27.6 µM | TGI (M19-MEL melanoma): 7.45 µM | TGI (NCI-H460 lung): 45.8 µM | TGI (SF-539 CNS): 31.5 µM | TGI (DLD-1 colon): 31.8 µM | TGI (RPMI-8226 leukemia): 48.2 µM
